This passage reports EC50, IC50 and outcome results from PubChem BioAssay AID179 (DTP/NCI, 2004).

The test system of the test is CEM cells HIV-1 protection, formazan growth assay. Kind of test: NCI AIDS Antiviral Assay. The conditions noted are these: for IC50: measured here: growth of uninfected CEM cells. The essentials:
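Protection of CEM cells against HIV-1 measured as cell growth via soluble formazan read-out, with five concentrations tested on both infected and uninfected cells; failure to protect may reflect toxicity.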

Values joined by “and” are separate entries in the source; they are usually repeats but may differ in a detail not shown here. Equal entries are not always repeated. Active and inactive are the calls of the source.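 How the source made its calls: active means compounds giving half or more protection of infected cells from virus-caused growth loss, again on retest; inactive means the rest.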

On to `CCOC(=O)C(=Cc1ccc(Br)cc1)C(=O)OCC`, for which the EC50 was above 57.5 µM and the IC50 is 11.7 µM. In the case of `CC(CCN1CCN(CCC(C)CC(C)(C)C)S1(=O)=O)CC(C)(C)C` (stereo not given), the result was inactive.

Turning to `COc1ccc(C(=O)NO)cc1`, the EC50 is above 200 µM and the IC50 turned out to be 25.1 µM.

Take `CCC(=O)OC1(c2ccccc2)CCN(CCC(=O)c2ccccc2)CC1C` (stereo not given): the EC50 was above 200 µM and the IC50 turned out to be 9.55 µM. For the molecule `COc1cccc2c(=O)oc(-c3ccc(C(C)(C)C)cc3)nc12`, the EC50 is above 200 µM and the IC50 was determined as 64.6 µM. On to `C[N+]12CCC(c3ccccc3)(CC1)C(O)C2` (stereo not given), for which the EC50 is above 832 µM and the IC50 worked out at 741 µM.

`[O-][n+]1c(CCl)nc2ccccc2c1-c1ccccc1F`: the EC50 was above 34.7 µM and the IC50 was above 34.7 µM. For `OC(Cc1ccc(Br)cc1)CN1CCC(c2ccccc2)CC1` (stereo not given), the EC50 is above 229 µM; the IC50 was 17.8 µM and 9.55 µM. Turning to `CC(=O)O[C@H]1CC[C@@]2(C)[C@H](CC[C@@H]3[C@@H]2CC[C@]2(C)[C@@H]4[C@H](C[C@@H]32)O[C@]2(CC[C@@H](C)CO2)[C@H]4C)C1`, the EC50 was above 200 µM and the IC50 was above 200 µM. For the molecule `O=C(Nc1ccc(-c2ccccc2)oc1=O)c1ccccc1`, the EC50 is above 100 µM and the IC50 is above 100 µM. Turning to `CC1(C)CC2(S(=O)(=O)c3ccccc3)ON1CC2S(=O)(=O)c1ccccc1` (stereo not given), the outcome was inactive. In the case of `COC12COC(=O)C1C(c1ccc3c(c1)OCO3)c1cc3c(cc1O2)OCO3` (stereo not given), the EC50 was above 200 µM and the IC50 was determined as 9.12 µM. For `Cc1ccc(S(=O)(=O)NCCCSCCSCCCN)cc1` the same measures were above 257 µM and 41.7 µM. Turning to `CCCCCCCCOC(CO)CO`, the EC50 is above 251 µM and the IC50 was above 251 µM. Regarding `Cc1ccc(NC(=O)C(=O)C2C(=O)NC(=O)NC2=O)cc1C`, the EC50 was above 117 µM and the half-inhibitory concentration (IC50) is above 117 µM.

For `O=C(O)CCCC(=O)Nn1c(Cc2ccc(Cl)cc2)n[nH]c1=O`, the EC50 was above 200 µM and the IC50 was above 200 µM. In the case of `C1COCCSC2=C(SCCO1)SC(=C1SC3=C(SCCOCCOCCS3)S1)S2`, the EC50 was above 17.8 µM and the IC50 was above 17.8 µM.

On to `CCN1C(=O)C(=C/C=C/C=C2/N(C)c3ccccc3C2(C)C)C(=O)N(CC)C1=S`, for which the EC50 is above 200 µM and the IC50 is 18.6 µM. With `CN(C)c1ccc(/C=C(\C#N)c2nc(-c3cc4ccccc4oc3=O)cs2)cc1`, the EC50 was 9.77 µM and the IC50 was above 100 µM. On the same counts, the results for `c1ccc(COc2ccc(CC3SCCCS3)cc2)cc1` are above 200 µM and above 200 µM.

In the case of `CC1C(c2ccccc2)=CCON1c1ccccc1` (stereo not given), the EC50 is above 75.9 µM and the IC50 is above 75.9 µM. For the molecule `CC(=O)OC(C)(C)C1CC[C@]2(C)/C=C/C(C)C[C@@H](O)/C=C(\C)CC(O)C12` (stereo not given in full), the outcome was inactive. On to `CC[N+](C)(CC)CCSC1=Nc2ccccc2N=C(c2ccc(Sc3ccccc3)cc2)C1`, for which the EC50 was above 200 µM and the IC50 worked out at 6.76 µM. For `Clc1cc2nc3[nH]c4ccccc4c3nc2cc1Cl` the same measures were above 83.2 µM and above 83.2 µM. Take `COc1cc([N+](=O)[O-])c(S(=O)(=O)O)cc1-n1nc(C(=O)Nc2ccccc2)n[n+]1-c1cc(S(=O)(=O)[O-])c([N+](=O)[O-])cc1OC`: the EC50 was above 372 µM and the IC50 was determined as 288 µM. For `Cc1cccc(N2C(=O)C(Cl)=C(Cl)C2=O)c1`, the result was inactive. In the case of `CN(C)C1C(CO)OC(n2cnc3c(N)ncnc32)C1O` (stereo not given), the EC50 is above 200 µM and the IC50 was above 200 µM. Regarding `CSc1nc(C)c(CCCl)c(Cl)n1`, the outcome was inactive. `Cc1cccc(-c2nnc(-c3nn(-c4ccccc4)c4nc5ccccc5nc34)o2)c1`: the EC50 was above 38.9 µM and the IC50 stood at 19.5 µM.

Turning to `CCCC(N)S(=O)(=O)O` (stereo not given), the EC50 is above 200 µM and the half-inhibitory concentration (IC50) was above 200 µM. `C/C(=N/NC(=S)Nc1cccc(C)c1)c1ccccn1`: the EC50 is above 0.2 µM and the IC50 is 0.0955 µM. Regarding `Cc1nnc(N=Nc2c(O)[nH]c3c(Cl)cc(Cl)cc23)n1N`, the EC50 is above 16.6 µM and the IC50 is above 16.6 µM. `C=C(COC(=O)CC(C)(C)CC(=O)O)[C@@H]1CC[C@]2(COC(=O)CC(C)(C)CC(=O)O)CC[C@]3(C)[C@H](CC[C@@H]4[C@@]5(C)CC[C@H](OC(=O)CC(C)(C)CC(=O)O)C(C)(C)[C@@H]5CC[C@]43C)[C@@H]12`: the EC50 was above 200 µM and the IC50 is 24.5 µM. For the molecule `c1ccc2c(c1)Nc1ccccc1[P+]21c2ccccc2Nc2ccccc21`, the EC50 is above 2 µM and the IC50 turned out to be 0.288 µM.

With `NC1=Nc2ccccc2Sc2nncn21`, the EC50 is above 200 µM and the IC50 worked out at 151 µM. In the case of `O=C(Cc1ccccc1)NN1C(=O)C(Cl)C1c1cc(Br)ccc1O` (stereo not given), the EC50 was above 12.6 µM and the IC50 stood at 6.92 µM. On the same counts, the results for `COc1ccc(/C=C2\N=C(NN)N=C2Cl)cc1` are above 200 µM and above 200 µM.

For the molecule `COc1ccc(Cc2c(-c3ccc(C)cc3)n[nH]c(=O)c2C2C(=O)N(c3ccccc3)N=C2c2ccccc2)cc1` (stereo not given), the EC50 is above 200 µM and the IC50 was found to be 38 µM. Regarding `COc1ccc2[nH]c3c(c2c1)CCc1ccccc1-3`, the result was inactive. Regarding `O=C1/C(=C/c2ccccc2)CNC/C1=C\c1ccccc1`, the result was inactive. As for `O=C(CC(=O)Nc1ccccc1)Nc1ccccc1`, the EC50 is above 102 µM and the IC50 is above 102 µM. For `CC(NC(=O)OC(C)(C)C)C(=O)C(N)=O` (stereo not given), the EC50 is above 200 µM and the IC50 is above 200 µM. Take `Cc1coc(NS(=O)(=O)c2ccc(N=Nc3c(N)n(C)c(=O)n(C)c3=O)cc2)c1C`: the outcome was inactive.

Consider `Cn1c2ccccc2c2ccc3c(c21)C(=O)C=CC3=O`, for which the EC50 was above 100 µM and the IC50 is 1.35 µM. For `Cn1cnc(N)c1S(=O)(=O)Nc1ccccc1Cl`, the EC50 is above 562 µM and the IC50 was above 562 µM. As to `CN(C)NP(=O)(NN(C)C)NN(C)C`, the EC50 was above 200 µM and the IC50 was above 200 µM.

Regarding `CC[N+](C)(CC)CCCC(C)N1C(=O)C2CCCCC2C1=O` (stereo not given), the EC50 was above 200 µM and the IC50 was above 200 µM. In the case of `COc1cc(SSc2cc(OC)c(OC)cc2C(=O)N2CSC[C@H]2C(=O)O)c(C(=O)N2CSC[C@@H]2C(=O)O)cc1OC`, the EC50 was above 200 µM and the IC50 was above 200 µM.

In the case of `CC1=CC(O)(c2ccccc2)C(N2CCOCC2)N1O` (stereo not given), the EC50 was above 200 µM and the IC50 was above 200 µM.

Regarding `NC(=O)Cn1c(=O)oc2cc(C(=O)CN3CCOCC3)ccc21`, the EC50 is above 200 µM and the IC50 was above 200 µM.

As to `O=Nc1c(NO)ccc2nn(-c3ccccc3)nc12`, the EC50 is above 20 µM and the IC50 was found to be 1.32 µM. With `CCOC(=O)CC(SP1(=S)OCC2(CC=CCC2)CO1)C(=O)OCC` (stereo not given), the EC50 is above 200 µM and the IC50 turned out to be 93.3 µM.

With `COC(=O)c1c(-c2ccccc2)c(-c2ccccc2)[nH]c(=O)c1C#N`, the EC50 is above 200 µM and the IC50 is above 200 µM. On to `CCOC(=O)/C(=C\c1cccc(Cl)c1)[Se]c1ccccc1`, for which the EC50 is above 14.1 µM and the IC50 was above 14.1 µM.

For `COc1ccc(-c2ncnc(-c3ccc(OC)c(OC)c3)n2)cc1OC`, the EC50 is above 100 µM and the IC50 was above 100 µM. On to `COc1cc(C(=O)CC2OC(=O)C(Cl)=C2Cl)ccc1Cl` (stereo not given), for which the EC50 was above 741 µM and the IC50 came out at 145 µM. `CC1(C)COC(=O)N1`: the EC50 is above 1550 µM and the IC50 is above 1550 µM. With `CC1=C/C(=C2/N=C(N(C)C)SS2)C(C)=N1`, the result was inactive. On to `COc1ccc2c(c1)C(c1ccc3ccccc3c1)OC2=O` (stereo not given), for which the EC50 was above 46.8 µM and the IC50 was determined as 7.41 µM.

For `CCOC(=O)c1ccc(Nc2cnc3ccc(C(F)(F)F)cc3n2)cc1`, the EC50 is above 200 µM and the IC50 is 10.7 µM. As to `OC[C@H]1CCCC1O` (stereo not given in full), the result was inactive. For the molecule `CCCn1c(SCC)c2cc3cc4ccccc4cc3cc2c1-c1nc(F)nc(F)n1`, the EC50 was above 30.9 µM and the IC50 amounted to 22.4 µM.

As for `CCCCN(C)CC(C(C)=O)C(c1ccccc1)c1c(O)c2ccccc2oc1=O` (stereo not given), the EC50 is above 67.6 µM and the concentration for half-maximal inhibition (IC50) came out at 60.3 µM. Consider `CC1CCCC(C)C(Sc2ccccc2)=C1Sc1ccccc1` (stereo not given), for which the result was inactive. For `CCCc1cc(=O)oc2c3c(cc(OC(C)CC)c12)O[C@H](C)[C@@H](C)C3=O` (stereo not given in full), the EC50 is above 60.3 µM and the IC50 turned out to be 14.1 µM. Turning to `CC1NC(=O)c2cc(=O)n(C)c(O)c21` (stereo not given), the EC50 is above 209 µM and the half-inhibitory concentration (IC50) is above 209 µM.

As to `N#CC(c1nc2ccccc2nc1Cl)S(=O)(=O)c1ccccc1` (stereo not given), the EC50 is above 105 µM and the IC50 was determined as 6.76 µM. Consider `COc1ccc(C=C2C(=O)c3ccccc3C2=O)cc1`, for which the outcome was inactive. With `CC12CCC(C(=Nc3ccc([N+](=O)[O-])cc3)C1=O)C2(C)C` (stereo not given), the EC50 was above 200 µM and the IC50 is 35.5 µM. Turning to `COc1ccc(-c2cc(-c3ccc(Cl)cc3)n(C3OC(CO)C(O)C(O)C3O)c(=S)c2C#N)cc1` (stereo not given), the EC50 was above 200 µM and the IC50 worked out at 7.76 µM. Take `O=C1Nc2ccccc2C12CCNC2Cc1ccccc1` (stereo not given): the EC50 is above 794 µM and the IC50 came out at 263 µM. On the same counts, the results for `CC1=NC(C)(CO)CO1` (stereo not given) are above 200 µM and above 200 µM. In the case of `O=C1c2ccccc2-c2cccc3cccc1c23`, the EC50 is above 16.2 µM and the IC50 was above 16.2 µM.

In the case of `COc1ccc(C=C(Cl)Cl)cc1OC`, the EC50 is above 200 µM and the IC50 was above 200 µM. In the case of `Cc1ccc(S(=O)(=O)C2=Cc3ccc(C(F)(F)F)cc3C2(O)c2cccc(C(F)(F)F)c2)cc1` (stereo not given), the EC50 is above 200 µM and the IC50 worked out at 2.19 µM.

With `COc1ccc(C2=Nc3ccccc3NC(=O)C2)cc1`, the EC50 was above 37.2 µM and the IC50 is above 37.2 µM.
